# Values quoted from earlier work as cited in patent US20170326154A1, “Pre-Operative Composition for Sedation or Analgesia” (priority 2016, published 2017).
# Read-outs that look alike come from different tables or passages of the source.
# Legend:
# [1] = basic drug, nitrogen atom in the imidazole ring
smiles,measurement,setting,value
"Cc1ncc2n1-c1ccc(Cl)cc1C(c1ccccc1F)=NC2 [Midazolam, 8-chloro-6-(2′-fluorophenyl)-1-methyl-4H-imidazo[1,5-a][1,4]-benzodiazepine]",adequate sedation within (time),intranasal administration,10 to 15 min
same,adequate sedation within (time),oral administration,10 to 20 min
same,pKa value,[1],5.5 and 6.2
